The record followed here is patent publication US20160022757A1, “THERAPEUTIC METHODS FOR TREATING SOLID TUMORS AND RELATED DIAGNOSTIC METHODS” (ICAHN SCHOOL OF MEDICINE AT MOUNT SINAI, priority 2013, published 2016).

Data set [1] relates to DLD-1 cells. As to the kind of experiment: MTT viability assay, DLD-1 cells. Conditions: for viability after bortezomib pre-treatment alone: doses that sensitize to BEZ235. It is filed as cell-based, human. The procedure:
(§1) Cell culture: Parental DLD-1 and HCT-116 cell lines (ATCC) and their PI3K wildtype derivatives (DLD-1 WT and HCT116 WT) (38) that were obtained from Dr. Bert Vogelstein's laboratory were maintained using DMEM with 10% FBS. All experiments were done under low serum (2.5% FBS) conditions (38). MTT assay: Cells were grown in sterile 25 cm^2 flasks to 80% confluency, trypsinized, resuspended in 100 mL DMEM with 2.5% FBS and seeded in 96-well plates in equal numbers. After 24 hours, cells were treated with compounds diluted in DMEM with 2.5% FBS as indicated for 1, 2 or 3 days. MTT assay was performed by replacing compound containing medium with fresh DMEM with 2.5% FBS and 10 mg/ml MTT reagent (Thiazoyl Blue tetrazolium Bromide, Fisher Scientific) in PBS at a ratio of 5:1 (120 μl/well; 96-well plates). Cells are incubated at 37° C. for 3 hours, then the medium is removed and cells are incubated in MTT solvent (4 mM HCl, 0.1% NP40 in isopropanol) on a shaker. The amount of MTT formazan in the resulting solution is spectrophotometrically measured at […] (and a reference filter of 620 nM). Adjusted absorbance value for each well is calculated using the following formula: (OD590SAMPLE-OD590BLANK)−(OD620SAMPLE-OD620BLANK). Each experiment is done in quadruple and relative viability is expressed as fold change in adjusted absorbance compared to untreated and DMSO treated controls in each plate.
On the technique in general: Formazan colour is commonly taken as a measure of viable cells.

The test system of data set [2] is ras^G12V p53^RNAi apc^RNAi animals. As to the kind of experiment: Dissemination after compound feeding, ras^G12V p53^RNAi apc^RNAi triple. It is filed as in vivo, Drosophila. Conditions: single agent. On the procedure: (§2) Targeted expression in the adult hindgut: Multigenic combinations were targeted to the adult hindgut using the hindgut specific gal4 line byn-gal4 (V. Hartenstein) and tub-gal80^ts (Bloomington). Crosses were kept at 16° C. to keep the transgenes silent during development and adult females were transferred to 29° C. to induce transgene expression. In addition, GFP and Dcr2 (Dicer 2) were co-expressed to mark the hindgut cells and to facilitate RNAi-mediated knock-down, respectively.
(§3) Compound Feeding: Compound treated food was made by diluting compound stocks (made in 100% DMSO) in semi-defined Drosophila medium to achieve a final concentration of 0.5% DMSO (empirically determined as the non-toxic DMSO dose in semi-defined Drosophila medium). Adult flies were kept on compound treated medium in standard Drosophila vials for 7 days (30 flies/vial, 1 ml food/vial) and provided with fresh compound food every other day. […]
(§4) Imaging and Scoring: Fluorescence images were taken using a Leica TCS SPE confocal microscope and processed using the Leica LAS-AF software. […] Distant migration was imaged and scored using a Leica MZ16F dissecting scope with a GFP filter under 10× magnification.
(§5) Statistical Analysis: Statistical significance for the distant migration assay was calculated using Fisher's exact test as this test allows the analysis of contingency tables where sample sizes are relatively small. […]

Data set [3] concerns PI3K and TORC1 activity (p-4EBP). As to the kind of experiment: Western blot analysis of PI3K pathway activity in hindguts after compound treatment. It is filed as in vivo, Drosophila. Conditions: four-hit hindguts; for p-4EBP levels: seven days. From the text:
Western Blot Analysis: Primary antibodies used were rabbit anti-Drosophila phospho-AKT (S505) (1:1000, Cell Signaling), rabbit anti-pan-AKT (1:1000, Cell Signaling), rabbit anti-phospho-4EBP (T37/46) (1:1000, Cell Signaling), rabbit anti-human phospho-AKT (Ser473) (1:1000, Cell Signaling), mouse anti-α-actin (1:1000, Cell Signaling) and mouse anti-Syntaxin (1:1000, DSHB). HRP-conjugated anti-mouse and anti-rabbit antibodies were used as secondary antibodies (1:5000, Cell Signaling). For signal detection, Immobilon Chemiluminescent HRP Substrate (Millipore) was used.
(§6) Compound Feeding: Compound treated food was made by diluting compound stocks (made in 100% DMSO) in semi-defined Drosophila medium to achieve a final concentration of 0.5% DMSO (empirically determined as the non-toxic DMSO dose in semi-defined Drosophila medium). Adult flies were kept on compound treated medium in standard Drosophila vials for 7 days (30 flies/vial, 1 ml food/vial) and provided with fresh compound food every other day.
Western Blot Analysis: Tissue lysates for western analysis were made by grinding 10-20 hindguts in lysis buffer (50 mM Tris-HCl, 150 mM NaCl, 1 mM EDTA, 1% NP-40) supplemented with protease and phosphatase inhibitor cocktails (Sigma). Lysates were boiled for 10 minutes in SDS Sample buffer and reducing agent, resolved on SDS-Page and transferred using standard protocols. Cell lysates are prepared similarly. Protein concentrations were determined using BioRad Protein Assay Dye Reagent following manufacturer's instructions.
Background: Immunoblotting shows a protein as a band on a membrane.

Data set [4] concerns ras^G12V p53^RNAi pten^RNAi apc^RNAi animals (adult hindgut). As to the kind of experiment: Dissemination (distant migration) after compound feeding, four-hit model. It is filed as in vivo, Drosophila. Conditions: for dissemination in combination with bortezomib: fed together with low non-toxic bortezomib (1 μM); for distant migration (dissemination into the abdominal cavity): four-hit model ras^G12V p53^RNAi pten^RNAi apc^RNAi, compounds fed for one week, single agent. On the procedure: as §2, §6
Compound Feeding: Compounds used in this study were (stock concentrations and sources in parentheses) AZD6244 (200 mM, Selleck Chemicals), SL327 (200 mM, Tocris), GW5074 (100 mM, Tocris), Sorafenib (200 mM, LC Labs), LY294002 (200 mM, LC Labs), Rapamycin (200 mM, LC Labs), BEZ235 (20 mM, LC Labs), Dasatinib (200 mM, LC Labs), SP600125 (200 mM, LC Labs), Bortezomib (200 mM, LC Labs), Cisplatin (200 mM, Sigma), LBH589 (200 mM, LC Labs), Wortmannin (200 mM, LC Labs), PI-103-HCl (100 mM, Tocris), Everolimus (100 mM, LC Labs) and Enzastaurin (50 mM, LC Labs).
Imaging and Scoring: Fluorescence images were taken using a Leica TCS SPE confocal microscope and processed using the Leica LAS-AF software. Scoring and imaging of SA-β-gal staining was performed using an Olympus BX41 microscope and a Nikon DS-Ri1 camera. Distant migration was imaged and scored using a Leica MZ16F dissecting scope with a GFP filter under 10× magnification.
Statistical Analysis: Statistical significance for the distant migration assay was calculated using Fisher's exact test as this test allows the analysis of contingency tables where sample sizes are relatively small. Use of a 4×2 contingency table allowed pairwise comparisons of the distant migration phenotype, which has four phenotypic categories, between different genotypes and/or treatment conditions. Each experiment was performed in duplicate (n=25-30 for each replicate) and multiple times. Error bars indicate standard error of the mean.
Given the low success rate of drug approvals for colorectal cancer (3) the study herein asked whether differences in genetic complexity influence a tumor model's response to drugs. Sixteen compounds that target key cancer relevant pathways and cellular processes were selected (FIG. 11); many of these compounds are currently in clinical trials including for colorectal cancer (25-27). Commencing the day of transgene induction, animals were fed compounds for one week and then scored for issemination into the abdominal cavity. Final compound concentrations in the media ranged from 1 μM-1 mM, corresponding to approximately 10-200 ng/day/animal based on adult feeding rates (FIG. 11).

Data set [5] relates to ras^G12V pten^RNAi animals. As to the kind of experiment: Dissemination after compound feeding, ras^G12V pten^RNAi double. Conditions: single agent. It is filed as in vivo, Drosophila. The procedure:
as §2, §3, §4, §5

In data set [6] the test system is HCT116 cells. As to the kind of experiment: MTT viability assay, HCT116 cells. It is filed as cell-based, human. The procedure:
as §1

For data set [7], the system named is ras^G12V animals (adult hindgut). As to the kind of experiment: Dissemination (distant migration) into the abdominal cavity after compound feeding, ras^G12V model. It is filed as in vivo, Drosophila. Conditions: compounds fed for one week, single agent. The procedure: as §2, §3, §4, §5
Data set [8] has as its system PI3K pathway. As to the kind of experiment: Western blot of PI3K pathway activation in DLD-1 cells. Conditions: DLD-1 cells treated with bortezomib. It is filed as cell-based, human.
Text: Western Blot Analysis: Primary antibodies used were rabbit anti-Drosophila phospho-AKT ([MUT]) (1:1000, Cell Signaling), rabbit anti-pan-AKT (1:1000, Cell Signaling), rabbit anti-phospho-4EBP (T37/46) (1:1000, Cell Signaling), rabbit anti-human phospho-AKT (Ser473) (1:1000, Cell Signaling), mouse anti-α-actin (1:1000, Cell Signaling) and mouse anti-Syntaxin (1:1000, DSHB). HRP-conjugated anti-mouse and anti-rabbit antibodies were used as secondary antibodies (1:5000, Cell Signaling). For signal detection, Immobilon Chemiluminescent HRP Substrate (Millipore) was used. […] All experiments were done under low serum (2.5% FBS) conditions (38). […] Lysates were boiled for 10 minutes in SDS Sample buffer and reducing agent, resolved on SDS-Page and transferred using standard protocols. Cell lysates are prepared similarly. Protein concentrations were determined using BioRad Protein Assay Dye Reagent following manufacturer's instructions.
Data set [9] relates to ras^G12V p53^RNAi pten^RNAi apc^RNAi animals. The settings on record: Drosophila, in vivo, 7 days.
Experimental: Targets, feeding doses and toxicity of compounds. a, List of compounds used for feeding experiments along with their targets, mechanisms of actions and concentrations used in the food. Estimated amount ingested was calculated based on our observations that adult females ingest approximately 0.2 μl of food per day (not shown). Estimated amount of ingested compound was also converted into mg/kg body weight/day using 1.1 mg as the average weight of an adult female. b, Survival curves of ras^G12V p53^RNAi pten^RNAi apc^RNAi animals fed the indicated compounds.

Molecules are shown by their SMILES. “Also recorded” adds a separate entry of the source.

As to `Cn1c(=O)n(-c2ccc(C(C)(C)C#N)cc2)c2c3cc(-c4cnc5ccccc5c4)ccc3ncc21` [BEZ235], the “sensitivity to BEZ235 after pretreatment with bortezomib” value in data set [1] (DLD-1 cells, bortezomib pretreatment for 24 hours) is “Increased sensitivity; also recorded: rendered DLD-1 cells sensitive to BEZ235 treatment; also recorded: sensitize the cells to BEZ235”; in data set [6] (HCT116 cells, bortezomib pretreatment for 24 hours), “sensitize the cells to BEZ235”. Besides, the “BEZ235 dose response, parental versus PI3K wildtype line” value in data set [1] (DLD-1 parental (Ras and PI3K active) vs DLD-1-WT) is given as “more resistant to BEZ235 than the derivative line DLD-1-WT”; in data set [6] (HCT116 parental (Ras and PI3K active) vs HCT116-WT), “more resistant to BEZ235 than its PI3K pathway wildtype counterpart, HCT116-WT”. Further, the “dissemination, response to BEZ235” value in data set [2] is “rendered the animals sensitive to BEZ235”; in data set [5], “sufficient to direct resistance to BEZ235”. For the same compound, in [3] (combined with bortezomib), the p-4EBP levels entry is listed as “reduced p-4EBP back to baseline levels”. In addition, the “dissemination in combination with bortezomib” value (shortened to “dissemination in combination”) in data set [4] (four-hit model) is “synergized”. For the same compound, the “dissemination after sequential treatment, bortezomib followed by BEZ235” value in [4] (four-hit model, sequential feeding) was “effective; also recorded: much more effective than concurrent feeding”.

Turning to `Cc1[nH]c2ccccc2c1CCNCc1ccc(/C=C/C(=O)NO)cc1` [LBH589], the “distant migration (dissemination into the abdominal cavity)” value was “effective against ras^G12V” in data set [7] and “not against ras^G12V p53^RNAi pten^RNAi apc^RNAi at non-toxic doses” in [4].

`O=c1cc(N2CCOCC2)oc2c(-c3ccccc3)cccc12` [LY294002, 2-(4-morpholinyl)-8-phenyl-4H-1-benzopyran-4-one]: in [3] (combined with bortezomib), the p-4EBP levels result is on record as “reduced p-4EBP back to baseline levels”. Besides, the “dissemination in combination” value in [4] (four-hit model) is reported as “synergized”.

Turning to `Oc1cccc(-c2nc(N3CCOCC3)c3oc4ncccc4c3n2)c1` [P1103], the “dissemination in combination” value in [4] (four-hit model) is on record as “synergized”.

Consider `CC(C)C[C@H](NC(=O)[C@H](Cc1ccccc1)NC(=O)c1cnccn1)B(O)O` [bortezomib], for which the “PI3K pathway activation status” value in [8] is “activated the PI3K pathway”. In addition, the “viability after bortezomib pre-treatment alone” value in data set [1] (DLD-1 cells) was “did not affect survival”; in [1] (DLD-1 cells, listed as Bortezomib) it was “does not affect the viability; also recorded: has no effect on viability”; in data set [6] (HCT116 cells, doses that sensitize to BEZ235), “does not affect the viability; also recorded: has no effect on viability”. In addition, the “PI3K and TORC1 activity” value in data set [3] (low doses of bortezomib) is “directed upregulation of PI3K and TORC1 activity”. The p-4EBP levels entry in [3] (bortezomib treatment alone) is recorded as “increase in p-4EBP levels”. Besides, the “distant migration (dissemination into the abdominal cavity)” value in [4] was “only showed efficacy at doses that otherwise killed more than 70% of the animals”. In data set [9], the “animals killed at doses showing efficacy” value is listed as “more than 70 % of the animals”.
